Test results taken from paper PMC4450297, “Screening Active Compounds from Garcinia Species Native to China Reveals Novel Compounds Targeting the STAT/JAK Signaling Pathway” (BioMed Research International, 2015).

Key:
Assay in all cases: Cell panel screen (CellTiter-Glo)
Assay type in all cases: cell-based, human
[1] = tested on: A498; details: A498 (listed under Lung), 20 micromolar, 72 hrs
Outline: (§1)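 Luminescence from luciferase-driven ATP detection gave the read-out. Compounds were tested at a single final concentration of 20 μM for 72 h, and inhibition was expressed as a percentage of the untreated signal after background correction.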

[2] = tested on: A704; details: A704 (Kidney), 20 micromolar, 72 hrs
Outline: as §1

[3] = tested on: BT-474; details: BT-474 (Breast), 20 micromolar, 72 hrs
Outline: as §1

[4] = tested on: BT-549; details: BT-549 (Breast), 20 micromolar, 72 hrs
Outline: as §1

[5] = tested on: Bel-7402; details: Bel-7402 (Liver), 20 micromolar, 72 hrs
Outline: as §1

[6] = tested on: C3A; details: C3A (Liver), 20 micromolar, 72 hrs
Outline: as §1

[7] = tested on: C8166; details: C8166 (Leukemia), 20 micromolar, 72 hrs
Outline: as §1

[8] = tested on: CCF-STTG1; details: CCF-STTG1 (Brain), 20 micromolar, 72 hrs
Outline: as §1

[9] = tested on: CW-2; details: CW-2 (Colon), 20 micromolar, 72 hrs
Outline: as §1

[10] = tested on: ChaGo-K-1; details: ChaGo-K-1 (Lung), 20 micromolar, 72 hrs
Outline: as §1

[11] = tested on: Colo 205; details: Colo 205, 20 micromolar, 72 hrs
Outline: as §1

[12] = tested on: HCC1395; details: HCC1395 (Breast), 20 micromolar, 72 hrs
Outline: as §1

[13] = tested on: HCC1569; details: HCC1569 (Breast), 20 micromolar, 72 hrs
Outline: as §1

[14] = tested on: HCC1599; details: HCC1599 (Breast), 20 micromolar, 72 hrs
Outline: as §1

[15] = tested on: HCC1937; details: HCC1937 (Breast), 20 micromolar, 72 hrs
Outline: as §1

[16] = tested on: HEC-1-A; details: HEC-1-A (Uterus), 20 micromolar, 72 hrs
Outline: as §1

[17] = tested on: HGC-27; details: HGC-27 (Stomach), 20 micromolar, 72 hrs
Outline: as §1

[18] = tested on: HPAF-II; details: HPAF-II (Pancreas), 20 micromolar, 72 hrs
Outline: as §1

[19] = tested on: HT-1197; details: HT-1197 (Urinary bladder), 20 micromolar, 72 hrs
Outline: as §1

[20] = tested on: J82; details: J82 (Urinary bladder), 20 micromolar, 72 hrs
Outline: as §1

[21] = tested on: M059J; details: M059J (Brain), 20 micromolar, 72 hrs
Outline: as §1

[22] = tested on: MSTO-211-H; details: MSTO-211-H (Lung), 20 micromolar, 72 hrs
Outline: as §1

[23] = tested on: NCI-H1623; details: NCI-H1623 (Lung), 20 micromolar, 72 hrs
Outline: as §1

[24] = tested on: NCI-H1694; details: NCI-H1694 (Lung), 20 micromolar, 72 hrs
Outline: as §1

[25] = tested on: NCI-H1770; details: NCI-H1770 (Lung), 20 micromolar, 72 hrs
Outline: as §1

[26] = tested on: NCI-H2347; details: NCI-H2347 (Lung), 20 micromolar, 72 hrs
Outline: as §1

[27] = tested on: NCI-H2405; details: NCI-H2405 (Lung), 20 micromolar, 72 hrs
Outline: as §1

[28] = tested on: NCI-H28; details: NCI-H28 (Lung), 20 micromolar, 72 hrs
Outline: as §1

[29] = tested on: NCI-H524; details: NCI-H524 (Lung), 20 micromolar, 72 hrs
Outline: as §1

[30] = tested on: Panc 03.27; details: Panc 03.27 (Pancreas), 20 micromolar, 72 hrs
Outline: as §1

[31] = tested on: RL95; details: RL95 (Uterus), 20 micromolar, 72 hrs
Outline: as §1

[32] = tested on: SW13; details: SW13 (Adrenal gland), 20 micromolar, 72 hrs
Outline: as §1

[33] = tested on: T47D; details: T47D (Breast), 20 micromolar, 72 hrs
Outline: as §1

[34] = tested on: T98G; details: T98G (Brain), 20 micromolar, 72 hrs
Outline: as §1

[35] = tested on: TCCSUP; details: TCCSUP (Urinary bladder), 20 micromolar, 72 hrs
Outline: as §1

[36] = tested on: ZR-75-30; details: ZR-75-30 (Breast), 20 micromolar, 72 hrs
Outline: as §1

SMILES | Percent Inhibition [1] | Percent Inhibition [2] | Percent Inhibition [3] | Percent Inhibition [4] | Percent Inhibition [5] | Percent Inhibition [6] | Percent Inhibition [7] | Percent Inhibition [8] | Percent Inhibition [9] | Percent Inhibition [10] | Percent Inhibition [11] | Percent Inhibition [12] | Percent Inhibition [13] | Percent Inhibition [14] | Percent Inhibition [15] | Percent Inhibition [16] | Percent Inhibition [17] | Percent Inhibition [18] | Percent Inhibition [19] | Percent Inhibition [20] | further results
O=C1CC(c2ccc(O)c(O)c2)Oc2cc(OC3OC(C(=O)O)C(O)C(O)C3O)cc(O)c21 (stereo not drawn) [gly-2] | -7% | -14% | -18% | -14% | -14% | -5% | -12% | 1% | -2% | -33% | -6% | 8% | -6% | -8% | -2% | -19% | 0% | -1% | -8% | -6% | Percent Inhibition [21]: -1%; Percent Inhibition [22]: 7%; Percent Inhibition [23]: 6%; Percent Inhibition [24]: -10%; Percent Inhibition [25]: -4%; Percent Inhibition [26]: -2%; Percent Inhibition [27]: -2%; Percent Inhibition [28]: -21%; Percent Inhibition [29]: -15%; Percent Inhibition [30]: 2%; Percent Inhibition [31]: 2%; Percent Inhibition [32]: -14%; Percent Inhibition [33]: -2%; Percent Inhibition [34]: -3%; Percent Inhibition [35]: -4%; Percent Inhibition [36]: 15%
COC(=O)C1OC(Oc2cc(O)c3c(c2)OC(c2ccc(O)c(O)c2)CC3=O)C(O)C(O)C1O (stereo not drawn) [gly-5] | -12% | -7% | -15% | -12% | -8% | -1% | -5% | 8% | 1% | -10% | -4% | 11% | -7% | -41% | 1% | -16% | -2% | -7% | 0% | -8% | Percent Inhibition [21]: 6%; Percent Inhibition [22]: -6%; Percent Inhibition [23]: 7%; Percent Inhibition [24]: -2%; Percent Inhibition [25]: -6%; Percent Inhibition [26]: 1%; Percent Inhibition [27]: 5%; Percent Inhibition [28]: -17%; Percent Inhibition [29]: -5%; Percent Inhibition [30]: 3%; Percent Inhibition [31]: 6%; Percent Inhibition [32]: -6%; Percent Inhibition [33]: 2%; Percent Inhibition [34]: 0%; Percent Inhibition [35]: -11%; Percent Inhibition [36]: 7%
CC(C)=CCc1c2c(c3oc4c(O)c(O)ccc4c(=O)c3c1O)C=CC(C)(C)O2 [Compound C-6] | 10% | -8% | -18% | -6% | 5% | 17% | 12% | 16% | 5% | 7% | 3% | 14% | 7% | 52% | 21% | 1% | 18% | -10% | 20% | 13% | Percent Inhibition [21]: -21%; Percent Inhibition [22]: 1%; Percent Inhibition [23]: -13%; Percent Inhibition [24]: 19%; Percent Inhibition [25]: 5%; Percent Inhibition [26]: 7%; Percent Inhibition [27]: -5%; Percent Inhibition [28]: 12%; Percent Inhibition [29]: -61%; Percent Inhibition [30]: 21%; Percent Inhibition [31]: 9%; Percent Inhibition [32]: 1%; Percent Inhibition [33]: 6%; Percent Inhibition [34]: 11%; Percent Inhibition [35]: 11%; Percent Inhibition [36]: 64%
